Experimental data reported in patent US10786521B2, “Methods and compositions for treatment of COPD diseases” (Shanghai KE Pharmaceutical Co., LTD, priority 2014, dated 2020).
pIC50: −log10 of the molar value. “Also recorded” adds a separate entry of the source.

Legend:
[1] = system: airway smooth muscle (bronchial rings); experiment: Relaxation of evoked isometric force of bronchial rings (wire myograph); type: cell-based, mice; conditions: for relaxation of evoked force of airway smooth muscle / bronchial rings: in vitro, concentration not given; for relaxation of MCh-evoked force at final concentration of 500 μM: 500 μM final, bronchi ring isometric assay; for pIC50: MCh-evoked force, dose dependent
Description: Briefly, the entire respiratory tree was rapidly removed and immersed in Krebs-Henseleit buffer (118.1 mM NaCl, 4.7 mM KCl, 1.2 mM MgSO4, 2.5 mM CaCl2, 1.0 mM NaH2PO4, 25 mM NaHCO3 and 11.1 mM glucose, pH 7.4). Bronchial rings, 2 mm in length, were isolated from pulmonary bronchi using a dissection microscope. Then the bronchial segments were mounted in a small-vessel wire myograph chamber (Danish Myo Technology, Aarhus, Denmark) by threading on two steel wires (40 μm in diameter) secured to two supports. One support was attached to a force transducer for measurements of isometric force development, and the other was attached to a micrometer controlling ring circumference. The preparation was kept in the chamber, immersed in 5 ml of Krebs-Henseleit solution, bubbled with 5% CO2 and 95% O2 and maintained at 37° C. The initial isometric tension of bronchial ring was set to 0 mN prior to equilibration for 20 min. The bronchial ring was then stretched in order to keep the force at 5 mN followed by an additional equilibration for 20 min. The isometric forces produced by bronchial ring was recorded with a data acquisition and analysis program (Danish Myo Technology, Aarhus, Denmark).
The robust relaxation effect and low risk of toxicity of KE on airway smooth muscle indicates its promising prospects for development. To identify the active ingredients of KE, the KE was divided into three parts including EtOAc phase, n-BuOH phase and water phase using EtOAc and n-BuOH sequential extraction. Upon the airway smooth muscle rings reached a relative steady contraction state evoked by MCh, accumulated volume of these three phases was added to assess the relaxation capacity. […] On the other hand, 1 μL of EtOAc phase just relaxed the rings to 90%.
Their dose-responsive effect on relaxation of airway smooth muscle was measured. When the force evoked by acetylcholine reached a relatively steady state, kudinosides were added to the bath in cumulative concentrations (0.1 μM, 0.3 μM, 1 μM, 3 μM, 10 μM, 30 μM). […] When the concentration of kudinoside D increased to 10 μM, about 50% of the force was relaxed. Strikingly, upon treatment with 30 μM of kudinoside D, more than 80% of the force was relaxed (FIG. 5B). Similarly, 30 μM of kudinoside A also led to 80% inhibition of evoked force. Note that the relaxation effect of kudinosides was completely reversible, because the relaxed muscles restored response to MCh after washing off.

L-type calcium channel = biological target: T1, L-type calcium channel (Mus musculus, UniProt Q01815); experiment: Whole-cell patch clamp recording of VDCC currents in primary airway smooth muscle cells; type: cell-based; conditions: 50 μM; room temperature; pulses −60 to +50 mV from −80 mV
T1 construct: endogenous in cells; host or cells: primary airway smooth muscle cells
T1 sequence (Q01815 whole entry): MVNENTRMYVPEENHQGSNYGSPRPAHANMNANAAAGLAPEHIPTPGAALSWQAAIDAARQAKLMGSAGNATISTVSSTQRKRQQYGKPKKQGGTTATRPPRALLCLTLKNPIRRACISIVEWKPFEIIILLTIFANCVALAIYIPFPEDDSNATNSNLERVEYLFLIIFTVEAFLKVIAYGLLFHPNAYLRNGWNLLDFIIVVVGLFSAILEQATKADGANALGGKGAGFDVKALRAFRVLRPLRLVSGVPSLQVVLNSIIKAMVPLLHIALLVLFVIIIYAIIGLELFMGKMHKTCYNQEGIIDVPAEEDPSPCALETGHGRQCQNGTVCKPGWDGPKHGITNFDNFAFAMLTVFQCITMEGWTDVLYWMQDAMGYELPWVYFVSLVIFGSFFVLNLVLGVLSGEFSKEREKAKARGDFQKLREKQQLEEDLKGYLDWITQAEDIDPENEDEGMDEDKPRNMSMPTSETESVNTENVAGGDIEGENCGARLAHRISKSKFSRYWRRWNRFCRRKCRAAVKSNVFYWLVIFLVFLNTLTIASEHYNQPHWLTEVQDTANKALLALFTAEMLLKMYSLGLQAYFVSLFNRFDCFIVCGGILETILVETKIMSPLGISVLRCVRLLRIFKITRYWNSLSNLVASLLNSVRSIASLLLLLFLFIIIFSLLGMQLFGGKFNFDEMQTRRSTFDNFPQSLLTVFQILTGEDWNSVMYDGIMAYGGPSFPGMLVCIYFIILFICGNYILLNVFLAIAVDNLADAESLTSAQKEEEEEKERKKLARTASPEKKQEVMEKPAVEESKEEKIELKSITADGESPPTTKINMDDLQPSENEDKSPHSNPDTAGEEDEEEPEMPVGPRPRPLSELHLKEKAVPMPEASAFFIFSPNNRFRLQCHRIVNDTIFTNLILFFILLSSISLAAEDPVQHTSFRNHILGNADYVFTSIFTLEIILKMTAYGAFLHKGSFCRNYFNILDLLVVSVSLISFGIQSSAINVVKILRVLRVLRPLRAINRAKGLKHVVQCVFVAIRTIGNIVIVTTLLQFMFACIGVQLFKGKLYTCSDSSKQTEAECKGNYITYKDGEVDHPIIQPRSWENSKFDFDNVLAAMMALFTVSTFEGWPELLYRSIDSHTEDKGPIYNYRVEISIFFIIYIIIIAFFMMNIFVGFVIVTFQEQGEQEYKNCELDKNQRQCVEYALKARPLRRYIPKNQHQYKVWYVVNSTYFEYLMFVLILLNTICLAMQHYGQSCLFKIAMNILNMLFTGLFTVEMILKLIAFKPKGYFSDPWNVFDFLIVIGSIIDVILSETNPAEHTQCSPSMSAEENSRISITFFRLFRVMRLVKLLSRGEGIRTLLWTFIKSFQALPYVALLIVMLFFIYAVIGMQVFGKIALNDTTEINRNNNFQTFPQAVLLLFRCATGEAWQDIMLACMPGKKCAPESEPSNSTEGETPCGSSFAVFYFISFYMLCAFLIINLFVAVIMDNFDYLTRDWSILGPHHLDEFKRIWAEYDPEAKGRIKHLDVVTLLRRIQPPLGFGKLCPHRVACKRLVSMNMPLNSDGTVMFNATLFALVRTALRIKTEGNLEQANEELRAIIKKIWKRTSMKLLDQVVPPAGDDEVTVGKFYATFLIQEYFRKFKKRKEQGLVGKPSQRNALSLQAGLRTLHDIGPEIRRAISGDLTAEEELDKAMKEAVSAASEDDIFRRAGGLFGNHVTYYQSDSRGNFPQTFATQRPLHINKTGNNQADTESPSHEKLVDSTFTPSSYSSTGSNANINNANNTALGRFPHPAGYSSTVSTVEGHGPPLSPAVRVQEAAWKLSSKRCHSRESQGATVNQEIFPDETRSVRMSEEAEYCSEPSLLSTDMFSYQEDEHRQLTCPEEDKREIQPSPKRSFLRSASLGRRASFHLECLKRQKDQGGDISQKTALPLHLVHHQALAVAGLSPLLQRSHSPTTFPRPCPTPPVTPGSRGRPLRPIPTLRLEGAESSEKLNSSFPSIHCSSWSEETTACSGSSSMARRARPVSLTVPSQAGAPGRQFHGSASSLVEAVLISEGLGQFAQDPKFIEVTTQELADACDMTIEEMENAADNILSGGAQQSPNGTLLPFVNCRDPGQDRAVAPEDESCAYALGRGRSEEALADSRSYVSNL
T1 sequence (O08532 25-1103 partner): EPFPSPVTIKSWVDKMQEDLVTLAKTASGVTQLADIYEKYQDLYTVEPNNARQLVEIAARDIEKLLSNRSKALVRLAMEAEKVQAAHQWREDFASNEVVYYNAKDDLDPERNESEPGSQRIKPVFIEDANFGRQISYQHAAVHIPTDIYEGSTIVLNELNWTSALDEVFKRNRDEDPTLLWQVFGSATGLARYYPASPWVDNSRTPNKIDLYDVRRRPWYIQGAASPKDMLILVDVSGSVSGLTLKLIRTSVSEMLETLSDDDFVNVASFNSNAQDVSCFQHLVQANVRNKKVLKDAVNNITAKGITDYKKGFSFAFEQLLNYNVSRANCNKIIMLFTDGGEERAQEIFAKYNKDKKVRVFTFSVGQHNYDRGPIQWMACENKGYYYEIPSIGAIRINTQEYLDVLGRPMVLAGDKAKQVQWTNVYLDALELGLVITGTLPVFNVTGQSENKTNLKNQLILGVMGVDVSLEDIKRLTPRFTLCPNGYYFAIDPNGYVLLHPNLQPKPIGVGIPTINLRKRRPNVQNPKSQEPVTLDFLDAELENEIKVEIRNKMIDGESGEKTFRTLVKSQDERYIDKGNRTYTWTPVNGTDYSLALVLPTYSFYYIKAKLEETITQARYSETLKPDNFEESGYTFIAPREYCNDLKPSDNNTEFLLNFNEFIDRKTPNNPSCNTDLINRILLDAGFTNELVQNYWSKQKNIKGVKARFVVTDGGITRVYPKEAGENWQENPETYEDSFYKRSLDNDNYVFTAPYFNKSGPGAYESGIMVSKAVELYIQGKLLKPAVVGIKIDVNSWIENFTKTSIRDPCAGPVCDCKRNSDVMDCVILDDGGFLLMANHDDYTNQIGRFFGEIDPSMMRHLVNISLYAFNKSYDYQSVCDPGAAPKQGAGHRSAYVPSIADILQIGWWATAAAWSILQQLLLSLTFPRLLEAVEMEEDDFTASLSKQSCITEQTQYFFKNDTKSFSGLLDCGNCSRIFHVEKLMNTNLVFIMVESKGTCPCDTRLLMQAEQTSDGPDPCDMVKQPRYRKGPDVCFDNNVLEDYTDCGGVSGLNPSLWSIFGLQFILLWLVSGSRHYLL
T1 sequence (P54285 whole entry partner): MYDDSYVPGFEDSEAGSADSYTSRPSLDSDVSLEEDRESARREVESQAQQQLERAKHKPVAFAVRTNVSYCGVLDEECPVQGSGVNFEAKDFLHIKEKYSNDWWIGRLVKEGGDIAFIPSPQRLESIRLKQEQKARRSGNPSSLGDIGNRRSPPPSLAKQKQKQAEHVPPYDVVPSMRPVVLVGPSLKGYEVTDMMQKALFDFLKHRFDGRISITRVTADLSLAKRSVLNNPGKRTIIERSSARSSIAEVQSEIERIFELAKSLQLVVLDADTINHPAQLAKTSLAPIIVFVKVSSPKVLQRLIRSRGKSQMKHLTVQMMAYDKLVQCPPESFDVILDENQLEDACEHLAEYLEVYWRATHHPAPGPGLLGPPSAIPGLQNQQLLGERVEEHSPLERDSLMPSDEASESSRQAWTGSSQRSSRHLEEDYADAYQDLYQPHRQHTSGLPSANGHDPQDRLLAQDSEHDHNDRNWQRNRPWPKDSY
Description: So to identify the target of certain kudinosides, patch-clamp studies were used to examine the modulation of L-type calcium channel currents after Kudinosides treatment. In patch-clamp studies, whole-cell patch clamp recording of VDCC currents were performed at room temperature, in response to voltage pulses (−60 to +50 mV from a holding potential of −80 mV, 200 ms).

human asthma (severe) = experiment: Kudinoside A inhalation (atomization device) in two volunteers with severe asthma syndromes; type: in vivo; conditions: volunteer; for time to release of dyspnea: kudinoside A 20 mM inhaled for 15 seconds, albuterol as control
Description: In order to test the effect of single substance in KE extract on asthma therapy, two volunteers with severe asthma syndromes were treated with kudinoside A (20 mM) with an atomization device.

[2] = system: asthmatic airway constriction in acute asthma mouse model; experiment: Airway resistance (Rrs, FlexiVent) in OVA-induced, methacholine-challenged asthma mice; type: in vivo, C57BL/6 mice; conditions: for inhibition of airway constriction in vivo: mouse
Description: Asthma mice were established as reported previously. Briefly, six to eight-week-old female C57BL/6 mice were carried out by intraperitoneal injection of 100 μg ovalbumin and 4 mg Imject Alum (ThermoFisher Scientific) in total volume of 0.2 mL on days 0 and 14. These mice were then challenged with 1.5%-2% aerosolized ovalbumin for 1 h on days 24, 25 and 26. The efficacy of drugs was evaluated by measuring airway resistance in these mice 24 h after the last challenge.
(§1) The airway resistance was measured through an invasive method as described in previous reports. In brief, the mice were anesthetized with 240 mg/kg Avertin and the trachea was cannulated with an 18-gauge metal needle. Mechanical ventilation (FlexiVent; SCIREQ Inc., Montreal, Canada) was applied at a frequency of 150 breaths per minute, a tidal volume of 10 ml/kg, and positive end-expiratory pressure of 2.5 cm H2O. Prior to methacholine challenge, deep inflation was applied followed by administration of aerosolized PBS to obtain stabilization of airway resistance (Rrs, cmH2O·s/mL). The Rrs after PBS was considered to be the baseline. Then mice were challenged with sequential concentrations of methacholine with a dose of 2.0, 4.0, 8.0, 16, 32 and 64 mg/mL by an ultrasonic nebulizer until reaching bronchoconstrictive phase that was four to five folds greater than baseline. Three minutes after the last dose of methacholine inhalation, the reagents were delivered by the same ultrasonic nebulizer. The Rrs measurements were performed every 30 s throughout the experiments. The negative control for these studies was PBS, because all the solvents for reagents used here were PBS. As a positive control, albuterol (3 μg; Sigma), the most widely used β-agonist as an effective bronchodilator for asthma therapy, was used.
as §1, with “Acute asthma model mice were established as reported previously. Briefly, six to eight-week-old female C57BL/6 mice were carried out by intraperitoneal injection of 100 μg ovalbumin and 4 mg Imject Alum (ThermoFisher Scientific) in total volume of 0.2 mL on days 0 and 14. These mice were then challenged with 1.5%-2% aerosolized ovalbumin for 1 h on days 24, 25 and 26. The efficacy of drugs by measuring airway resistance in these mice 24 h was evaluated after the last challenge. The airway” for “The airway”

In the case of Kudinoside A, the “force relaxed / inhibition of evoked force at 30 μM” value ([1]; force evoked by acetylcholine, cumulative concentrations, 30 μM) was 80%, the “relaxation of evoked force of airway smooth muscle / bronchial rings” value [1] was “significantly relaxed bronchial rings in a dose-dependent manner” and the “decrease of current generated by L-type calcium channel compared to vehicle” value (L-type calcium channel) was “about 60%”. For the same compound, the “duration of release of dyspnea” value (human asthma (severe)) was “maintained overnight”, the “PEF value after inhalation” value (human asthma (severe); 20 mM, 15 seconds inhalation, increased from 100) was 320 and the “time to release of dyspnea” value (human asthma (severe)) was 5 min.

C[C@@H]1O[C@@H](O[C@@H]2[C@H](O)[C@@H](O)[C@H](O[C@H]3CC[C@@]4(C)C(CC[C@]5(C)C4C=C[C@]46OC[C@@]7(CCC(C)(C)CC74)[C@@H](O)C[C@]65C)C3(C)C)O[C@@H]2CO[C@@H]2O[C@H](CO)[C@@H](O)[C@H](O)[C@H]2O)[C@H](O)[C@H](O)[C@H]1O (stereo partly drawn) [Saikosaponin C, reference compound] was tested, and the “relaxation of MCh-evoked force at final concentration of 500 μM” value (“relaxation of MCh-evoked force” below) [1] was “about 50%” and the pIC50 [1] was < 3.82.

For Kudinoside C, the “relaxation of evoked force of airway smooth muscle / bronchial rings” value [1] was “strong relaxation effect on airway smooth muscles” and the “inhibition of airway constriction in vivo” value [2] was “significant inhibition of airway constriction”.

For C[C@@H]1O[C@@H](O[C@H]2[C@H](O[C@H]3[C@H](O[C@H]4CC[C@@]5(C)[C@@H](CC[C@]6(C)[C@@H]5CC=C5[C@@H]7CC(C)(C)C[C@@H](O)[C@]7(C)CC[C@]56C)[C@@]4(C)CO)O[C@H](C(=O)O)[C@@H](O)[C@@H]3O)O[C@H](CO)[C@H](O)[C@@H]2O)[C@H](O)[C@H](O)[C@H]1O [Soyasaponin Bb, reference compound], the “relaxation of MCh-evoked force” value [1] was “about 50%”.

For C[C@@H]1O[C@@H](O[C@H]2[C@H](O[C@H]3[C@H](O[C@H]4CC[C@]5(C)[C@H]6CC=C7[C@@H]8CC(C)(C)CC[C@]8(C(=O)O)CC[C@@]7(C)[C@]6(C)CC[C@H]5C4(C)C)OC[C@H](O)[C@@H]3O)O[C@H](CO)[C@@H](O)[C@@H]2O)[C@H](O)[C@H](O)[C@H]1O [Raddeanin A, reference compound], the “relaxation of MCh-evoked force” value [1] was “about 50%”.

For CC(C)(C)NCC(O)c1ccc(O)c(CO)c1 (stereo not drawn) [albuterol, reference compound], the “reduction of airway resistance at 1 minute after inhalation, 3 μg (positive control)” value ([2]; 3 μg inhaled, 1 minute, printed as 'led to a reduction of') was 55.59±13.07%, the “effect on asthmatic airway resistance” value ([2]; n-BuOH phase 30 μg, albuterol 3 μg, inhaled after MCh challenge) was “significant reduction of airway resistance” and the “duration of release of dyspnea” value (human asthma (severe)) was “could not be maintained overnight”. For the same compound, the “time to release of dyspnea” value (human asthma (severe)) was ≤ 3 min.

CC1(C)[C@@H](O)CC[C@]2(C)[C@H]3C(=O)C=C4[C@@H]5C[C@@](C)(C(=O)O)CC[C@]5(C)CC[C@@]4(C)[C@]3(C)CC[C@@H]12 [Glycyrrhetinic acid, reference compound] was tested, and the “relaxation of MCh-evoked force” value [1] was “about 50%” and the pIC50 ([1]; Mus musculus) was 4.07.

COC(=O)[C@@]1(C)CC[C@]2(C(=O)O)CC[C@]3(C)C(=CC[C@@H]4[C@@]5(C)C[C@H](O)[C@H](O)[C@@](C)(CO)[C@@H]5CC[C@]43C)[C@@H]2C1 [Phytolaccagenin, reference compound] was tested, and the “relaxation of MCh-evoked force” value [1] was “about 50%”.

In the case of Kudinoside H, the “relaxation of evoked force of airway smooth muscle / bronchial rings” value [1] was “fails to show effective bronchial ring relaxation; also recorded: little effect on relaxation in vitro” and the “inhibition of airway constriction in vivo” value [2] was “little inhibition activity of airway constriction in vivo”.
